Assay results published in ChEMBL document CHEMBL1147548, “Didehydrofarnesyl diphosphate: an intrinsically fluorescent inhibitor of protein farnesyltransferase” (Bioorg Med Chem Lett, 2004).

T1: Farnesyltransferase (Saccharomyces cerevisiae S288c, UniProt P22007+P29703)
T1 sequence (P29703 whole entry): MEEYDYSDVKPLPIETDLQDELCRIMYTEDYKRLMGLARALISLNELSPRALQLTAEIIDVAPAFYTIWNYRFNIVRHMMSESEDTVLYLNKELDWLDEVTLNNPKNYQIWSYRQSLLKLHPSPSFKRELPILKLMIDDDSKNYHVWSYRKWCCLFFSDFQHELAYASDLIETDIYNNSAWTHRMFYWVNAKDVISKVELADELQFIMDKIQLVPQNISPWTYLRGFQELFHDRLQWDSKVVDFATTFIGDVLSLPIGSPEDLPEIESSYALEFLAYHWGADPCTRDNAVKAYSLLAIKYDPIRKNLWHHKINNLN
T1 sequence (P22007 whole entry): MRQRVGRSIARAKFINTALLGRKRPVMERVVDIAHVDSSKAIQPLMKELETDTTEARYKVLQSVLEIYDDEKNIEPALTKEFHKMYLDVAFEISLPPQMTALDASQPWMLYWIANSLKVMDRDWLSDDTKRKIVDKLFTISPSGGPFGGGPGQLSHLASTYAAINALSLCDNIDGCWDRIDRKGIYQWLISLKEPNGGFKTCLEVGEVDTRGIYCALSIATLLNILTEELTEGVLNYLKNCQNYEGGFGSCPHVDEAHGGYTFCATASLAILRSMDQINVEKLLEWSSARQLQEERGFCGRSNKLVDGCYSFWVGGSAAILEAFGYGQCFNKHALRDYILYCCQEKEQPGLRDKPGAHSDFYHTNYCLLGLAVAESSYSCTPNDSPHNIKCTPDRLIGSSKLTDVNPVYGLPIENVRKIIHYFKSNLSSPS

B1: Farnesyltransferase (Saccharomyces cerevisiae S288c), P29703+P22007 (protein)
chain 1: MEEYDYSDVKPLPIETDLQDELCRIMYTEDYKRLMGLARALISLNELSPRALQLTAEIIDVAPAFYTIWNYRFNIVRHMMSESEDTVLYLNKELDWLDEVTLNNPKNYQIWSYRQSLLKLHPSPSFKRELPILKLMIDDDSKNYHVWSYRKWCCLFFSDFQHELAYASDLIETDIYNNSAWTHRMFYWVNAKDVISKVELADELQFIMDKIQLVPQNISPWTYLRGFQELFHDRLQWDSKVVDFATTFIGDVLSLPIGSPEDLPEIESSYALEFLAYHWGADPCTRDNAVKAYSLLAIKYDPIRKNLWHHKINNLN
chain 2: MRQRVGRSIARAKFINTALLGRKRPVMERVVDIAHVDSSKAIQPLMKELETDTTEARYKVLQSVLEIYDDEKNIEPALTKEFHKMYLDVAFEISLPPQMTALDASQPWMLYWIANSLKVMDRDWLSDDTKRKIVDKLFTISPSGGPFGGGPGQLSHLASTYAAINALSLCDNIDGCWDRIDRKGIYQWLISLKEPNGGFKTCLEVGEVDTRGIYCALSIATLLNILTEELTEGVLNYLKNCQNYEGGFGSCPHVDEAHGGYTFCATASLAILRSMDQINVEKLLEWSSARQLQEERGFCGRSNKLVDGCYSFWVGGSAAILEAFGYGQCFNKHALRDYILYCCQEKEQPGLRDKPGAHSDFYHTNYCLLGLAVAESSYSCTPNDSPHNIKCTPDRLIGSSKLTDVNPVYGLPIENVRKIIHYFKSNLSSPS

Tests used:
Farnesyltransferase = biological target: T1, Farnesyltransferase; assay: (§1) Dissociation constant against yeast farnesyltransferase; type: protein-complex assay
[1] = substrate: CC(C)=CCC/C(C)=C/CC/C(C)=C/COP(=O)(O)OP(=O)(O)O; assay: as §1; type: protein-complex assay; details: Saccharomyces cerevisiae

Molecule	Ki (Farnesyltransferase)	Km [1]
CC(C)=C/C=C/C(C)=C/C=C/C(C)=C/COP(=O)(O)OP(=O)(O)O	8.8 µM	
B1		27 µM
